Source: patent publication US7935714B2, “Compositions for sleeping disorders” (Bright Future Pharmaceutical Laboratories, priority 2004, dated 2011)

Test system: male Wistar rats
Assay: Telemetry EEG study of NREM sleep (sleep latency and quality) in freely moving male Wistar rats
Type: in vivo
Settings: for sleep latency / NREM sleep during the second hour following treatment / NREM sleep within the first hour following treatment: zolpidem
Experimental: Telemetric EEG, activity and temperature monitors were surgically implanted sub-coetaneously onto the lower backs of male Wistar rats, under ketamie and xyalsine (75/10 mg/kg, i.p.) anaesthesia. A skin incision was made above the scull and the transmitter tunnelled subcutaneously from the neck to the lower back with blunted scissors. The EEG leads were placed into two 0.5 mm holes that were drilled stererotaxically 2 mm anterior to Lambda and 1 mm to the left and right of centre, so that contact was made with the durra, and fixed with quick drying glue and reinforced with dental cement. The incision was then closed with 4-0 silk suture and post operative temgesic applied for pain relief. Following a 4 week recovery and acclimatization period in individually housed ventilated cages (12 hour light/12 hour dark cycle 20-25° C.), the rats were orally treated with either test compounds, positive controls or vehicle 45-30 min prior commencement of their light cycle (sleeping period). A Latin square dosing regiment was used where each rat received each of the drugs tested in random order with 4 days clearance time between each dosing. EEG waveforms were analysed using a power spectral analysis of each 5 second epoch and scored manually into % duration of NREM sleep for each hour over a 12 hour period. […] Data were analysed using Two-way ANOVA versus vehicle treatment (*p<0.05, n=7).

[1] = p.o., zopiclone 5 mg/kg, Compound Mixture 50 mg/kg, compared to vehicle
[2] = p.o., zopiclone 5 mg/kg, Compound Mixture 50 mg/kg, versus vehicle

**Q.** What does the source list for `Cc1ccc(-c2nc3ccc(C)cn3c2CC(=O)N(C)C)cc1` [zolpidem]?
**A.** NREM sleep during the remainder of the sleep period (5 mg/kg p.o., compared to vehicle): failed to significantly improve NREM sleep; sleep latency [1]: significantly reduce sleep latency; NREM sleep during the second hour following treatment [2]: not significantly different from vehicle treatment; NREM sleep within the first hour following treatment [2]: significantly increased

**Q.** Which results are given for `CN1CCN(C(=O)OC2c3nccnc3C(=O)N2c2ccc(Cl)cn2)CC1` (stereo not drawn) [zopiclone]?
**A.** sleep quality during the 6th hour of sleep (5 mg/kg p.o., versus vehicle): negative effect on sleep quality; sleep latency [1]: significantly reduce sleep latency; NREM sleep during the second hour following treatment [2]: not significantly different from vehicle treatment; NREM sleep within the first hour following treatment [2]: significantly increased; NREM sleep duration during the 8th hour [2]: significantly improved
